The subject of the test is eggs of cat flea. The test can be described thus: Hatching inhibition of cat flea eggs on treated filter paper (Test Example 1). The test is classed as in vivo, cat flea (Ctenocephalides felis). The conditions noted are these: 26° C., 95% humidity, 5 days, corrected against non-treated hatching ratio 92.4%. How it is done: Each of pyriproxyfen, 1S,3S,4S,6R-carane-3,4-diol and a mixture thereof was diluted with acetone, added dropwise to a filter paper (3.8 cm in diameter) and dried. About 20 eggs (within 24 hours after laid) of cat flea were set on the filter paper prepared above. The filter paper was held in a plastic plate, kept 26° C. of temperature and 95% of humidity for 5 days and hatching was observed.
Hatching inhibition ratio (%) in Table represents a corrected inhibition ratio (%) which is calculated by the following:
Hatching inhibition ratio (%)={(C−T)/C}×100
wherein C is a hatching ratio (92.4%) of flea at non-treated area and T is a hatching ratio of flea at treated area.
In the table, PY means pyriproxyfen and CA means 1S,3S,4S,6R-carane-3,4-diol. The treated dosage unit is mg/m^2.

Consider `CC1(C)[C@@H]2C[C@H](O)[C@@](C)(O)C[C@@H]21` [CA, 1S,3S,4S,6R-carane-3,4-diol], for which the “Hatching inhibition ratio (%)” value (treated dosage 10 mg/m^2 on filter paper) is 3.1% and the “Hatching inhibition ratio (%)” value (treated dosage 100 mg/m^2 on filter paper) was 12.1%.
For the molecule `CC(COc1ccc(Oc2ccccc2)cc1)Oc1ccccn1` (stereo not drawn) [PY, pyriproxyfen], the “Hatching inhibition ratio (%)” value (treated dosage 0.1 mg/m^2 on filter paper) turned out to be 58.1%.

Values taken from patent US6346261B1, “Pesticidal composition” (priority 1997, dated 2002).
